The target in series [1] is T1, P2X7 receptor (Homo sapiens, UniProt Q99572).
T1 construct: host or cells: THP-1 cells differentiated with LPS and IFN-γ
T1 sequence (Q99572 1-595): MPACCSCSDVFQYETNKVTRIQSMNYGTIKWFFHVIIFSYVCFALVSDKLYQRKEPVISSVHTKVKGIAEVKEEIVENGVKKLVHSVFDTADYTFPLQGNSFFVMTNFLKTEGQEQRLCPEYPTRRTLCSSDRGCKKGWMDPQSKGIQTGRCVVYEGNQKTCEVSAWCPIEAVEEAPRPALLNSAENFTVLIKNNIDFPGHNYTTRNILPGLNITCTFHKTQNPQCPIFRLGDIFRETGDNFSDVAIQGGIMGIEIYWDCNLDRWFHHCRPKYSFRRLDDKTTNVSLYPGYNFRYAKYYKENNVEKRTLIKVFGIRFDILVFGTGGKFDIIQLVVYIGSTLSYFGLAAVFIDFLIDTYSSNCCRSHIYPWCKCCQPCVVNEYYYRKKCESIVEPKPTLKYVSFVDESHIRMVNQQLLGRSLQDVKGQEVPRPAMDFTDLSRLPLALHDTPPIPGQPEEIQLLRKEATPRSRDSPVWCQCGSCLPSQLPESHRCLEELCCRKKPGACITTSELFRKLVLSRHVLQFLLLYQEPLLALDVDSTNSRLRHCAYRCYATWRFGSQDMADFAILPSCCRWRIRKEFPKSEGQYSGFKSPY
The series can be described thus: IL-1β release assay in differentiated THP-1 cells (Example 9). Particulars: THP-1 cells differentiated with LPS and IFN-γ; 30 min pretreatment; BzATP 250 uM; IL-1β by ELISA. Type of series: cell-based. The method, then: THP-1 cells (ATCC Cat #285-IF-100) are plated in 96 well plates at a concentration of 200,000 cells per well and allowed to differentiate in RPMI-1640 media (ATCC Cat #30-2001) containing 10% FBS, 100 IU/mL penicillin, 100 ug/mL streptomycin, 100 ng/mL LPS and 100 ng/mL IFN-γ for 16 hours. Following differentiation, the cells are treated for an additional 2 hours in RPMI-1640 media containing 100 IU/mL penicillin, 100 ug/mL streptomycin and fresh LPS at 100 ng/mL. The cells are then pretreated for 30 minutes with the compound of interest at the appropriate concentration in RPMI media containing 100 IU/mL penicillin, 100 ug/mL streptomycin. Following the pretreatment 2′,3′-O-(4-benzoylbenzoyl)-adenosine 5′-triphosphate (Sigma Aldrich Cat # B6396) is added to a final concentration of 250 uM, and the cells are incubated for an additional 45 minutes. 30 uL of cell supernatant is then collected and IL-1β levels are determined via ELISA (R&D systems Cat. # HSLB50) according to manufacturer's recommendations using a Tecan Safire plate reader. Background adjusted IL-1β levels of drug treated and non-treated cells are used to calculate the percent inhibition.
The following compounds have been or can be prepared according to the synthetic methods described herein for example, methods A-AA1. The compounds set forth in Table 1 were tested for activity in a cellular model as described herein. Specifically, cells were pretreated with differing amounts of the compound under test and released IL-1β determined as in Example 9, above. Measurements were made and IC50 values, presented in Table 1, below, were determined by fitting the data to a four parameter logistic equation using GraphPad Prism software (GraphPad Software, Inc). The equation may be expressed by the following formula: Y=Bottom+(Top−Bottom)/(1+10^((Log EC50−X)*HillSlope)) where X is the logarithm of concentration, Y is the response and Y starts at Bottom and goes to Top with a sigmoid shape.

Series [2] is described as follows: Half-life in human liver microsomes (HLM). Particulars: human liver microsomes 0.78 mg/mL, 1 μM compound, NADPH, 37° C.; for half-life at 1 μM: pH 7.4. The format is in vitro ADME.
Procedure: Half-Life in Human Liver Microsomes (HLM)
Test compounds (1 μM) are incubated with 3.3 mM MgCl2 and 0.78 mg/mL HLM (HL101) in 100 mM potassium phosphate buffer (pH 7.4) at 37° C. on the 96-deep well plate. The reaction mixture is split into two groups, a non-P450 and a P450 group. NADPH is only added to the reaction mixture of the P450 group. An aliquot of samples of P450 group is collected at 0, 10, 30, and 60 min time point, where 0 min time point indicated the time when NADPH is added into the reaction mixture of P450 group. […] Collected aliquots are extracted with acetonitrile solution containing an internal standard. […] The compound concentration in supernatant is measured by LC/MS/MS system.
The half-life value is obtained by plotting the natural logarithm of the peak area ratio of compounds/internal standard versus time. The slope of the line of best fit through the points yields the rate of metabolism (k). This is converted to a half-life value using following equations: Half-life=ln 2/k
A short description of series [3]: Plasma protein binding by equilibrium dialysis, human plasma. Type of series: in vitro ADME. Particulars: pH 7.4, equilibrium dialysis 16 hr at 37° C., % Bound. How it is done:
The plasma protein binding of compounds of invention is measured in human and rat plasma, respectively. A stock solution of the tested compound is prepared in 1 mg/mL in DMSO solution. The stock solution is spiked into the blank plasma to get a final compound concentration at 1 μg/mL for testing. Equilibrium dialysis (The equilibrium dialyzer-96TM MWCO 5K Daltons, Harvard Apparatus) method is used for the testing purpose.
The compound spiked plasma (at […]) and phosphate buffer (0.1 M, pH 7.4), 200 μl each, are added into the opposite sides of the membrane in a 96-well equilibrium dialyzer, respectively. The dialyzer plate is covered and incubated overnight (16 hr) at 37° C. in the 8-plate rotor incubator (Big Shot III 8-plate rotor, Harvard Apparatus). Aliquots (100 μL) are taken from the plasma and the buffer compartments, respectively. The matrix effects are eliminated by adding the same volume of blank plasma into the samples from buffer compartments and adding the same volume of phosphate buffer into the samples from plasma compartments. The samples are extracted by using the regular (3:1) protein precipitation extraction procedure (acetonitrile with internal standard). The supernatants are taken for LC/MS/MS analysis. The percentage of plasma-protein binding can be calculated by using the following method: % Free=[Free Drug/Total Drug]*100=[(Peak Area)buffer/(Peak Area)plasma]*100 % Bound=100−% Free.
For the purpose of Table 4, the plasma protein binding of each compound is expressed as follows: […]
On the technique in general: In equilibrium dialysis only unbound substance equilibrates across the membrane.

The structures appear in SMILES notation. Where only a bound is given, the exact number is not on record here.

Turning to `Cc1ccc2c(=O)n([C@H](C)CO)ccc2c1C(=O)NCc1ccc(C(F)(F)F)c(F)c1` [Compound 40, 2-((R)-2-Hydroxy-1-methyl-ethyl)-6-methyl-1-oxo-1,2-dihydro-isoquinoline-5-carboxylic acid 3-fluoro-4-trifluoromethyl-benzylamide], the IC50 – broadly, the concentration that inhibits the measured activity by half – in series [1] amounted to 3 nM. Also, in series [2], the half-life (in general, the time in which the quantity being followed falls by half) at 1 μM is 2.6 h. Further, the fraction unbound (in general, free concentration divided by total concentration) at 16 hr, 1 μg/mL in series [3] lay in the range of 0.1 to 0.24.
On to `C[C@H](CO)n1ccc2c(NC(=O)Cc3ccc(F)c(C(F)(F)F)c3)c(Cl)ccc2c1=O` [Compound 13, N-[6-Chloro-2-((R)-2-hydroxy-1-methyl-ethyl)-1-oxo-1,2-dihydro-isoquinolin-5-yl]-2-(4-fluoro-3-trifluoromethyl-phenyl)-acetamide], for which the IC50 in series [1] turned out to be 0.4 nM. In addition, in series [2], the “Half Life” value was 1.0 h. In series [3], this molecule returned a fraction unbound at 16 hr, 1 μg/mL below 0.1.
On the same counts, the results for `Cc1ccc2c(=O)n(CCO)ccc2c1NC(=O)Cc1ccc(C(F)(F)F)c(F)c1` [Compound 28, 2-(3-Fluoro-4-trifluoromethyl-phenyl)-N-[2-(2-hydroxy-ethyl)-6-methyl-1-oxo-1,2-dihydro-isoquinolin-5-yl]-acetamide] are 9 nM, 3.7 h and below 0.1.
Consider `C[C@H](CO)n1ccc2c(C(=O)NCC3(O)CCC(C(F)(F)F)CC3)c(Cl)ccc2c1=O` (stereo partly drawn) [Compound 56, 6-Chloro-2-((R)-2-hydroxy-1-methyl-ethyl)-1-oxo-1,2-dihydro-isoquinoline-5-carboxylic acid (1-hydroxy-4-trifluoromethyl-cyclohexylmethyl)-amide], for which the IC50 in series [1] was 9 nM. The half-life at 1 μM in series [2] was 0.7 h. The molecule further had a fraction unbound at 16 hr, 1 μg/mL in series [3] of 0.25 to 0.49.
On the same counts, the results for `Cc1ccc2c(=O)n([C@H](C)CO)ccc2c1C(=O)NCc1cccc(C(F)(F)F)c1` [Compound 42, 2-((R)-2-Hydroxy-1-methyl-ethyl)-6-methyl-1-oxo-1,2-dihydro-isoquinoline-5-carboxylic acid 3-trifluoromethyl-benzylamide] are 7 nM, 0.8 h and below 0.1.
On to `C[C@H](CO)n1ccc2c(C(=O)NCC3(O)CCC(F)(F)CC3)c(Cl)ccc2c1=O` [Compound 68], for which, in series [1], the IC50 came to 3 nM. The molecule also had a half-life at 1 μM in series [2] of 0.65 h. The molecule further displayed a fraction unbound at 16 hr, 1 μg/mL in series [3] of 0.25 to 0.49.
For the molecule `Cc1ccc2c(=O)n([C@H](C)CO)ccc2c1NC(=O)Cc1cccc(C(F)(F)F)c1F` [Compound 23, 2-(2-Fluoro-3-trifluoromethyl-phenyl)-N-[2-((R)-2-hydroxy-1-methyl-ethyl)-6-methyl-1-oxo-1,2-dihydro-isoquinolin-5-yl]-acetamide], the half-inhibitory concentration (IC50) in series [1] came to 11 nM. The half-life at 1 μM in series [2] is 1.4 h. This molecule gave a fraction unbound at 16 hr, 1 μg/mL in series [3] below 0.1.
With `Cc1ccc2c(=O)n([C@H](C)CO)ccc2c1NC(=O)Cc1ccc(C(F)(F)F)cc1` [Compound 25, N-[2-((R)-2-Hydroxy-1-methyl-ethyl)-6-methyl-1-oxo-1,2-dihydro-isoquinolin-5-yl]-2-(4-trifluoromethyl-phenyl)-acetamide], the IC50 in series [1] was 6 nM. In series [2], this molecule gave a half-life at 1 μM of 4.6 h. In series [3], this molecule gave a fraction unbound at 16 hr, 1 μg/mL of 0.1 to 0.24.
In the case of `C[C@H](CO)n1ccc2c(C(=O)NCc3ccc(C(F)(F)F)c(F)c3)c(Cl)ccc2c1=O` [Compound 41, 6-Chloro-2-((R)-2-hydroxy-1-methyl-ethyl)-1-oxo-1,2-dihydro-isoquinoline-5-carboxylic acid 3-fluoro-4-trifluoromethyl-benzylamide], the IC50 in series [1] came to 7 nM. The molecule further showed a half-life at 1 μM in series [2] of 3 h. Moreover, the fraction unbound at 16 hr, 1 μg/mL in series [3] is below 0.1.
Taken in the same sequence, the figures for `C[C@H](CO)n1ccc2c(C(=O)NCC3(O)CCC4(CC3)CC4(F)F)c(Cl)ccc2c1=O` (some centres unmarked) [Compound 65] were 0.3 nM, 0.62 h and 0.25 to 0.49.
With `Cc1ccc2c(=O)n([C@H](C)CO)ccc2c1NC(=O)Cc1ccc(C(F)(F)F)c(F)c1` [Compound 21, N-[6-Methyl-2-((R)-2-hydroxy-1-methyl-ethyl)-1-oxo-1,2-dihydro-isoquinolin-5-yl]-2-(3-fluoro-4-trifluoromethyl-phenyl)-acetamide], in series [1], the half-inhibitory concentration (IC50) was 0.4 nM. Also, the “Half Life” value in series [2] was 1.5 h. Further, the fraction unbound at 16 hr, 1 μg/mL in series [3] is below 0.1.
With `Cc1ccc2c(=O)n([C@H](C)CO)ccc2c1NC(=O)Cc1ccc(F)c(C(F)(F)F)c1` [Compound 22, 2-(4-Fluoro-3-trifluoromethyl-phenyl)-N-[2-((R)-2-hydroxy-1-methyl-ethyl)-6-methyl-1-oxo-1,2-dihydro-isoquinolin-5-yl]-acetamide], in series [1], the IC50 is 0.7 nM. Moreover, in series [3], the fraction unbound at 16 hr, 1 μg/mL is below 0.1.

Values taken from patent US8093265B2, “Bicycloheteroaryl compounds as P2X7 modulators and uses thereof” (Renovis, Inc., priority 2007, dated 2012).
